Results: paper PMC3907542 (PLoS ONE, 2014)
Where “and” joins values, the source holds several entries; their conditions need not be identical. Identical values can stand only once. Like-named read-outs stand apart in the source and are kept apart here.

How the values were obtained:
[1] = tested on: CYP3A; experiment: in vitro; conditions: rat, rat liver microsomes, pH 7.4, probe nifedipine
Description: (§1) The preparation of rat liver microsome (RLM) suspensions were performed as previously reported [38]. […] Briefly, the incubation mixtures (total volume 0.2 ml) contained microsomal protein [...

[2] = tested on: CYP3A; conditions: Lineweaver-Burk plot, RLMs, nifedipine as substrate
Description: as §1

[3] = tested on: plasma proteins; set-up: method as in earlier work; conditions: plasma protein binding; ref 1 (Tang Y et al); cited from earlier work
[4] = Pharmacokinetics of baicalin in rats (plasma Cmax); format: in vivo; conditions: Sprague Dawley, rat, iv, read-out: C max of baicalin
Description: All pharmacokinetic data were obtained from 12 animals.
The concentration of baicalin in the blood samples was determined using a slightly modified high-performance liquid chromatography (HPLC) protocol with UV detection at 278 nm. Briefly, 100 µl methanol was added to 25 µl of the blood sample. […] The quantitation limits of baicalin in the rat plasma were 5.86 mg/L.

[5] = tested on: rat plasma proteins; experiment: Plasma protein binding of nifedipine in vitro with or without baicalin (ultrafiltration); format: in vitro ADME; conditions: double reciprocal plot, baicalin 250-2000 mg/L

**Q.** What does the source list for O=C(O)[C@H]1O[C@@H](Oc2cc3oc(-c4ccccc4)cc(=O)c3c(O)c2O)[C@H](O)[C@@H](O)[C@@H]1O [baicalin, 5,6-Dihydroxy-flavone-7-O-glucuronide]?
**A.** Ki at 30 min [1]: 146 µM and 64.9 µg/mL; type of inhibition of CYP3A [2]: competitive; association constant (KA) [3]: 121000 L/mol; Cmax ([4]; baicalin 0.225 g/kg i.v.): 755 µg/mL; Cmax ([4]; baicalin 0.45 g/kg i.v.): 1280 µg/mL; type of interaction between nifedipine and baicalin for rat plasma proteins [5]: competitive
